From US20120165319A1, “INHIBITORS OF INTERLEUKIN-1 BETA CONVERTING ENZYME” (VERTEX PHARMACEUTICALS INCORPORATED, priority 1995, published 2012)

Legend:
[1] = test system: male DBA/1J mice, type II collagen-induced arthritis; experiment: Type II collagen-induced arthritis; type: in vivo, mouse; details: oral gavage twice a day 10, 25 and 50 mg/kg (214e: 50 mg/kg once a day), Arthritis Severity Score, result in words
Description: Type II Collagen-Induced Arthritis
Type II collagen-induced arthritis was established in male DBA/1J mice at described Wooley and Geiger (Wooley, P. H., Methods in Enzymology, 162, pp. 361-373 (1988) and Geiger, T., Clinical and Experimental Rheumatology, 11, pp. 515-522 (1993)). Chick sternum Type II collagen ([…] in 10 mM acetic acid) was emulsified with an equal volume of Freund's complete adjuvant (FCA) by repeated passages (400) between two 10 ml glass syringes with a gauge 16 double-hub needle. Mice were immunized by intradermal injection (50 μl; […], CII per mouse) of collagen emulsion 21 days later at the contra-lateral side of the tail base. Drugs were administered twice a day (10, 25 and 50 mg/kg) by oral gavage approximately 7 h apart. Vehicles used included ethanol/PEG/water, β-cyclodextrin, labrosol/water or cremophor/water. Drug treatments were initiated within 2 h of the CII booster immunization. Inflammation was scored on a 1 to 4 scale of increasing severity on the two front paws and the scores are added to give the final score.

[2] = test system: IL-1β levels in the peritoneal fluid, carrageenan-challenged mice; experiment: Mouse carrageenan peritoneal inflammation; type: in vivo; details: oral administration; 214e at 50 mg/kg; result in words
Description: Mouse Carrageenan Peritoneal Inflammation
Inflammation was induced in mice with an intraperitoneal (IP) injection of 10 mg carrageenan in 0.5 ml of saline (Griswold et al., Inflammation, 13, pp. 727-739 (1989)). Drugs are administered by oral gavage in ethanol/PEG/water, β-cyclodextrin, labrosol/water or cremophor/water vehicle. The mice are sacrificed at 4 hours post carrageenan administration, then injected IP with 2 ml of saline containing 5 U/ml heparin. After gentle massage of the peritoneum, a small incision is made, the contents collected and volume recorded. Samples are kept on ice until centrifuged (130×g, 8 mins at 4° C.) to remove cellular material, and the resultant supernatant stored at −20° C. IL-1β levels in the peritoneal fluid are determined by ELISA.

[3] = In vivo bioavailability determination (oral, rat)
Description: In Vivo Bioavailability Determination
The drugs (10-100 mg/kg) were dosed orally to rats (10 mL/kg) in ethanol/PEG/water, β-cyclodextrin, labrosol/water or cremophor/water. Blood samples were drawn from the carotid artery at 0.25, 0.50, 1, 1.5, 2, 3, 4, 6, and 8 hours after dosing, centrifuged to plasma and stored at −70° C. until analysis. Aldehyde concentrations were determined using an enzymatic assay. Pharmacokinetic analysis of data was performed by non-linear regression using RStrip (MicroMath Software, UT).

[4] = test system: IL-1β, human PBMC; experiment: Human PBMC assay (Example 27): IL-1β production; type: cell-based; details: Homo sapiens, PBMC; Table 22; read-out: Cell PBMC avg. IC50
Description: Since the processing and secretion of biologically active IGIF is mediated by ICE, we compared the activity of a reversible ICE inhibitor (Ac-YVAD-CHO) on IL-1β and IFN-γ production in a peripheral blood mononuclear cell (PBMC) assay (Examples 27).
Human buffy coat cells were obtained from blood donors and peripheral blood mononuclear cells (PBMC) were isolated by centrifugation in LeukoPrep tubes (Becton-Dickinson, Lincoln Park, N.J.). PBMC were added (3×10^6/well) to 24 well Corning tissue culture plates and after 1 hr incubation at 37° C., non-adherent cells were removed by gently washing. Adherent mononuclear cells were stimulated with LPS (1 μg/ml) with or without ICE inhibitor in 2 ml RPMI-1640-10% FBS. After 16-18 hr incubation at 37° C., IGIF and IFN-γ were quantitated in culture supernatants by ELISA.

Compound | inhibition of inflammation / progression of type II collagen-induced arthritis [1] | inhibition of IL-1β production in carrageenan-challenged mice [2] | blood levels of drug when dosed orally ([3]; oral 10-100 mg/kg, result in words) | Drug Availability ([3]; oral, dose 45 mg/kg) | Cmax ([3]; plasma, oral, dose 45 mg/kg, read-out: Cmax) | IC50 [4]
O=C[C@H](CC(=O)O)NC(=O)[C@@H]1CCCN2C(=O)CC[C@H](NC(=O)c3ccccc3)C(=O)N12 [Compound 214e, [3S(1S,9S)]3-(9-Benzoylamino-6,10-dioxo-1,2,3,4,7,8,9,10-octahydro-6H-pyridazino[1,2-a][1,2]-diazepine-1-carboxamido)-4-oxobutanoic acid] | did not inhibit inflammation | did not inhibit IL-1β production | not detected | 0.9% | 200 ng/mL | –
O=C[C@H](CC(=O)O)NC(=O)[C@@H]1CCCN2C(=O)CC[C@H](NC(=O)c3nccc4ccccc34)C(=O)N12 [Compound 412, [3S(1S,9S)]3-[6,10-Dioxo-9-(isoquinolin-1-oylamino)-1,2,3,4,7,8,9,10-octahydro-6H-pyridazino[1,2-a][1,2]diazepine-1-carboxamido]-4-oxobutanoic acid] | – | – | – | – | – | 580 nM
